Laboratory results published in the supplement of paper PMC10307832.

Assays:
Assay in all cases: relative viability (nuclei count vs DMSO), 5 days (fraction); higher = more cells survive
Venetoclax + Pemetrexed = compound: CC1(C)CCC(CN2CCN(c3ccc(C(=O)NS(=O)(=O)c4ccc(NCC5CCOCC5)c([N+](=O)[O-])c4)c(Oc4cnc5[nH]ccc5c4)c3)CC2)=C(c2ccc(Cl)cc2)C1 [Venetoclax] + Nc1nc2[nH]cc(CCc3ccc(C(=O)N[C@@H](CCC(=O)O)C(=O)O)cc3)c2c(=O)[nH]1 [Pemetrexed] (partner 0.2 µM)
Outline: (§1)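 Lung cancer cell lines were pin-tool dosed in 1536-well plates on the day after seeding, with either a lone drug or a fixed anchor-drug dose plus five library-drug doses (not always all listed) in √10 steps. Nuclei were counted on 4× images after 5 days. Relative viability is the ratio of treated-well to vehicle-well nuclei counts, with each value a median of duplicate plates.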

Venetoclax + Dasatinib = compound: CC1(C)CCC(CN2CCN(c3ccc(C(=O)NS(=O)(=O)c4ccc(NCC5CCOCC5)c([N+](=O)[O-])c4)c(Oc4cnc5[nH]ccc5c4)c3)CC2)=C(c2ccc(Cl)cc2)C1 [Venetoclax] + Cc1nc(Nc2ncc(C(=O)Nc3c(C)cccc3Cl)s2)cc(N2CCN(CCO)CC2)n1 [Dasatinib] (partner 0.075 µM)
Outline: as §1

Selumetinib + Lapatinib = compound: Cn1cnc2c(F)c(Nc3ccc(Br)cc3Cl)c(C(=O)NOCCO)cc21 [Selumetinib] + CS(=O)(=O)CCNCc1ccc(-c2ccc3ncnc(Nc4ccc(OCc5cccc(F)c5)c(Cl)c4)c3c2)o1 [Lapatinib] (partner 2 µM)
Outline: as §1

Venetoclax + Linsitinib = compound: CC1(C)CCC(CN2CCN(c3ccc(C(=O)NS(=O)(=O)c4ccc(NCC5CCOCC5)c([N+](=O)[O-])c4)c(Oc4cnc5[nH]ccc5c4)c3)CC2)=C(c2ccc(Cl)cc2)C1 [Venetoclax] + C[C@]1(O)C[C@@H](c2nc(-c3ccc4ccc(-c5ccccc5)nc4c3)c3c(N)nccn32)C1 [Linsitinib] (partner 1 µM)
Outline: as §1

Cell Line | relative viability (Venetoclax + Pemetrexed; first compound 0.01 µM) | relative viability (Venetoclax + Pemetrexed; first compound 0.03162 µM) | relative viability (Venetoclax + Pemetrexed; first compound 0.1 µM) | relative viability (Venetoclax + Pemetrexed; first compound 0.3162 µM) | relative viability (Venetoclax + Pemetrexed; first compound 1 µM) | relative viability (Venetoclax + Dasatinib; first compound 0.01 µM) | relative viability (Venetoclax + Dasatinib; first compound 0.03162 µM) | relative viability (Venetoclax + Dasatinib; first compound 0.1 µM) | relative viability (Venetoclax + Dasatinib; first compound 0.3162 µM) | relative viability (Venetoclax + Dasatinib; first compound 1 µM) | relative viability (Selumetinib + Lapatinib; first compound 0.02 µM) | relative viability (Selumetinib + Lapatinib; first compound 0.06325 µM) | relative viability (Selumetinib + Lapatinib; first compound 0.2 µM) | relative viability (Selumetinib + Lapatinib; first compound 0.6325 µM) | relative viability (Venetoclax + Linsitinib; first compound 0.01 µM) | relative viability (Venetoclax + Linsitinib; first compound 0.03162 µM) | relative viability (Venetoclax + Linsitinib; first compound 0.1 µM) | relative viability (Venetoclax + Linsitinib; first compound 0.3162 µM) | relative viability (Venetoclax + Linsitinib; first compound 1 µM)
NCI-H2342 | 0.872 | 0.784 | 0.747 | 0.738 | 0.717 | 0.436 | 0.341 | 0.325 | 0.288 | 0.331 | – | – | – | – | – | – | – | – | –
SK-MES-1 | 0.918 | 1.08 | 0.994 | 0.956 | 0.754 | 0.4 | 0.383 | 0.329 | 0.408 | 0.376 | 0.432 | 0.401 | 0.361 | 0.371 | 0.995 | 1.09 | 1.07 | 1.06 | 0.963
LCLC-97TM1 | 0.165 | 0.182 | 0.167 | 0.163 | 0.153 | 0.856 | 0.888 | 0.764 | 0.733 | 0.802 | 1.05 | 0.985 | 0.86 | 0.481 | – | 0.197 | 0.158 | 0.182 | 0.198
HCC-44 | 0.667 | 0.673 | 0.63 | 0.649 | 0.656 | – | – | – | – | – | 0.977 | 1 | 0.891 | 0.966 | 0.613 | 0.728 | 0.67 | 0.664 | 0.609
201T | 0.283 | 0.309 | 0.33 | 0.329 | 0.366 | 0.545 | 0.551 | 0.614 | 0.501 | 0.488 | 1.01 | 0.963 | 0.958 | 0.949 | 0.986 | 1.01 | 1.03 | 1.03 | 1.01
HOP-62 | 0.356 | 0.335 | 0.287 | 0.313 | 0.355 | 0.557 | 0.582 | 0.616 | 0.709 | 0.625 | 1.08 | 0.86 | 0.732 | 0.636 | 1.04 | 0.968 | 1.15 | 0.938 | 0.948
NCI-H661 | 0.933 | 0.922 | 0.861 | 0.897 | 0.901 | 0.809 | 1.04 | 0.871 | 0.995 | 0.888 | 0.449 | 0.466 | 0.427 | 0.351 | 0.676 | 0.662 | 0.551 | 0.703 | 0.567
NCI-H2087 | 0.7 | 0.65 | 0.785 | 0.707 | 0.668 | 0.848 | 0.839 | 0.997 | 0.936 | 0.76 | 0.86 | 0.87 | 0.56 | 0.441 | 1.01 | 1.13 | 1.01 | 0.983 | 0.945
NCI-H647 | 0.164 | 0.192 | 0.206 | 0.178 | 0.178 | 0.16 | 0.218 | 0.162 | 0.238 | 0.228 | 0.964 | 0.872 | 0.876 | 0.957 | 0.996 | 1.15 | – | 1.4 | 1.02
SW 1573 | 0.784 | 0.808 | 0.784 | 0.843 | 0.846 | 0.431 | 0.445 | 0.517 | 0.599 | 0.452 | 1.19 | 1.01 | 1.04 | 0.788 | 0.93 | 0.766 | 0.916 | 0.835 | 0.891
A-427 | 0.988 | 0.967 | 1.03 | 1.04 | 0.978 | 0.667 | 0.726 | 0.667 | 0.687 | 0.639 | 0.98 | 0.914 | 1.09 | 1.1 | 1.06 | 1.18 | 1.1 | 1.16 | 1.19
NCI-H520 | 0.781 | 0.73 | – | 0.626 | 0.646 | 0.218 | 0.193 | 0.158 | 0.178 | 0.195 | 0.894 | 0.799 | 0.86 | 0.883 | 1.04 | 0.935 | 0.911 | 0.969 | 0.902
NCI-H1755 | 0.39 | 0.475 | 0.397 | 0.441 | 0.407 | 0.398 | 0.404 | 0.43 | 0.402 | 0.378 | 0.971 | 0.953 | 0.91 | 0.998 | 0.978 | 1 | 0.848 | 0.964 | 0.969
NCI-H1975 | 0.261 | 0.279 | 0.276 | 0.309 | 0.281 | 0.355 | 0.4 | 0.372 | 0.318 | 0.322 | 0.856 | 0.65 | 0.794 | 0.674 | 1.02 | 0.971 | 0.869 | 0.92 | 0.92
Calu-6 | – | – | – | – | – | – | – | – | – | – | 1.05 | 0.853 | 0.693 | 0.439 | 0.897 | 0.943 | 1.01 | 0.901 | 0.896
SK-LU-1 | 0.97 | 1.05 | 1.03 | 0.966 | 0.867 | 0.251 | 0.168 | 0.192 | 0.191 | 0.181 | 0.964 | 0.773 | 0.751 | 0.479 | 1.01 | 1.25 | 0.998 | 1.04 | 1.13
EMC-BAC-2 | 0.406 | 0.457 | 0.407 | 0.467 | 0.417 | 0.331 | 0.343 | 0.292 | 0.327 | 0.31 | 0.955 | 0.898 | 0.905 | 0.862 | 0.789 | 0.834 | 0.816 | 0.814 | 0.787
LK-2 | 0.331 | 0.381 | 0.255 | 0.249 | 0.227 | 0.403 | 0.319 | 0.259 | 0.247 | 0.255 | 1.16 | 0.852 | 0.848 | 0.924 | 0.727 | 0.621 | 0.516 | 0.548 | 0.551
